In ChEMBL document CHEMBL3885881, “DrugMatrix”:

Species on record: Rattus norvegicus
Assay: DrugMatrix - Regimen: Daily Repeat
Format: toxicity, organism-based, Sprague-Dawley
Design: regimen Daily Repeat, gender Male, age 6-8 weeks
Conditions: in vivo, po, route oral GAVAGE, […]; for ABSOLUTE BASOPHIL / ABSOLUTE EOSINOPHIL / ABSOLUTE LYMPHOCYTE / ABSOLUTE MONOCYTE / ABSOLUTE SEGMENTED NEUTROPHIL / BASOPHIL / EOSINOPHIL / ERYTHROCYTE COUNT / HEMATOCRIT / HEMOGLOBIN / LEUKOCYTE COUNT / LYMPHOCYTE / MEAN CORPUSCULAR HEMOGLOBIN / MEAN CORPUSCULAR HEMOGLOBIN CONCENTRATION / MEAN CORPUSCULAR VOLUME / MONOCYTE / NEUTROPHIL / NUCLEATED RED BLOOD CELLS / PLATELET COUNT: tissue Blood; for ALANINE AMINOTRANSFERASE / ALBUMIN / ALKALINE PHOSPHATASE / ASPARTATE AMINOTRANSFERASE / BLOOD UREA NITROGEN / CARBON DIOXIDE / CHLORIDE / CHOLESTEROL / CREATINE PHOSPHOKINASE / CREATININE / GLUCOSE / LACTATE DEHYDROGENASE / LIPASE / PHOSPHORUS / POTASSIUM / SODIUM / TOTAL BILIRUBIN / TOTAL PROTEIN / URIC ACID: tissue Plasma
[1] = 10 mg/kg, 120 h, dose level Low, time 5 day
[2] = 92 mg/kg, 72 h, dose level High, time 3 day
[3] = 92 mg/kg, 120 h, dose level High, time 5 day

Structure (SMILES): c1ccc2[nH]c(-c3cscn3)nc2c1 [THIABENDAZOLE]
- ABSOLUTE BASOPHIL [1]: 0 CELLS/uL
- ABSOLUTE EOSINOPHIL [1]: 61 CELLS/uL
- ABSOLUTE LYMPHOCYTE [1]: 15391 CELLS/uL
- ABSOLUTE MONOCYTE [1]: 225.67 CELLS/uL
- ABSOLUTE SEGMENTED NEUTROPHIL [1]: 1089 CELLS/uL
- BASOPHIL [1]: 0%
- EOSINOPHIL [1]: 0.33%
- ERYTHROCYTE COUNT [1]: 6.11 x10E6/uL
- HEMATOCRIT [1]: 37.8%
- HEMOGLOBIN [1]: 14.63 G/DL
- LEUKOCYTE COUNT [1]: 16.77 x10E3/uL
- LYMPHOCYTE [1]: 92%
- MEAN CORPUSCULAR HEMOGLOBIN [1]: 23.97 pg
- MEAN CORPUSCULAR HEMOGLOBIN CONCENTRATION [1]: 38.7 G/DL
- MEAN CORPUSCULAR VOLUME [1]: 61.9 fL
- MONOCYTE [1]: 1.33%
- NEUTROPHIL [1]: 6.33%
- NUCLEATED RED BLOOD CELLS [1]: 0 /100WBC
- PLATELET COUNT [1]: 1202.33 x10E3/uL
- ALANINE AMINOTRANSFERASE [1]: 79.33 u/L
- ALBUMIN [1]: 4 G/DL
- ALKALINE PHOSPHATASE [1]: 420.33 u/L
- ASPARTATE AMINOTRANSFERASE [1]: 82.33 u/L
- BLOOD UREA NITROGEN [1]: 12.33 mg/dL
- CARBON DIOXIDE [1]: 30.67 mmol/L
- CHLORIDE [1]: 100.67 MEQ/L
- CHOLESTEROL [1]: 66.33 mg/dL
- CREATINE PHOSPHOKINASE [1]: 192 u/L
- CREATININE [1]: 0.19 mg/dL
- GLUCOSE [1]: 163.67 mg/dL
- LACTATE DEHYDROGENASE [1]: 183 u/L
- LIPASE [1]: 10.33 u/L
- PHOSPHORUS [1]: 11.47 mg/dL
- POTASSIUM [1]: 6.52 MEQ/L
- SODIUM [1]: 143.07 MEQ/L
- TOTAL BILIRUBIN [1]: 0.13 mg/dL
- TOTAL PROTEIN [1]: 5.6 G/DL
- URIC ACID [1]: 1.87 mg/dL
- ABSOLUTE BASOPHIL [2]: 0 CELLS/uL
- ABSOLUTE EOSINOPHIL [2]: 24 CELLS/uL
- ABSOLUTE LYMPHOCYTE [2]: 7261 CELLS/uL
- ABSOLUTE MONOCYTE [2]: 24 CELLS/uL
- ABSOLUTE SEGMENTED NEUTROPHIL [2]: 591 CELLS/uL
- BASOPHIL [2]: 0%
- EOSINOPHIL [2]: 0.33%
- ERYTHROCYTE COUNT [2]: 5.57 x10E6/uL
- HEMATOCRIT [2]: 35.07%
- HEMOGLOBIN [2]: 13.8 G/DL
- LEUKOCYTE COUNT [2]: 7.9 x10E3/uL
- LYMPHOCYTE [2]: 91.33%
- MEAN CORPUSCULAR HEMOGLOBIN [2]: 24.83 pg
- MEAN CORPUSCULAR HEMOGLOBIN CONCENTRATION [2]: 39.4 G/DL
- MEAN CORPUSCULAR VOLUME [2]: 63.07 fL
- MONOCYTE [2]: 0.33%
- NEUTROPHIL [2]: 8%
- NUCLEATED RED BLOOD CELLS [2]: 0.33 /100WBC
- PLATELET COUNT [2]: 1094.67 x10E3/uL
- ALANINE AMINOTRANSFERASE [2]: 74.33 u/L
- ALBUMIN [2]: 4.13 G/DL
- ALKALINE PHOSPHATASE [2]: 448.67 u/L
- ASPARTATE AMINOTRANSFERASE [2]: 82 u/L
- BLOOD UREA NITROGEN [2]: 11.67 mg/dL
- CARBON DIOXIDE [2]: 25 mmol/L
- CHLORIDE [2]: 95.67 MEQ/L
- CHOLESTEROL [2]: 85 mg/dL
- CREATINE PHOSPHOKINASE [2]: 153.33 u/L
- CREATININE [2]: 0.32 mg/dL
- GLUCOSE [2]: 135.67 mg/dL
- LACTATE DEHYDROGENASE [2]: 102 u/L
- LIPASE [2]: 9.33 u/L
- PHOSPHORUS [2]: 9.53 mg/dL
- POTASSIUM [2]: 5.43 MEQ/L
- SODIUM [2]: 139.33 MEQ/L
- TOTAL BILIRUBIN [2]: 0.13 mg/dL
- TOTAL PROTEIN [2]: 5.73 G/DL
- URIC ACID [2]: 0.6 mg/dL
- ABSOLUTE BASOPHIL [3]: 0 CELLS/uL
- ABSOLUTE EOSINOPHIL [3]: 47 CELLS/uL
- ABSOLUTE LYMPHOCYTE [3]: 13905 CELLS/uL
- ABSOLUTE MONOCYTE [3]: 244.33 CELLS/uL
- ABSOLUTE SEGMENTED NEUTROPHIL [3]: 703.67 CELLS/uL
- BASOPHIL [3]: 0%
- EOSINOPHIL [3]: 0.33%
- ERYTHROCYTE COUNT [3]: 6.23 x10E6/uL
- HEMATOCRIT [3]: 39.1%
- HEMOGLOBIN [3]: 15 G/DL
- LEUKOCYTE COUNT [3]: 14.9 x10E3/uL
- LYMPHOCYTE [3]: 93.33%
- MEAN CORPUSCULAR HEMOGLOBIN [3]: 24.1 pg
- MEAN CORPUSCULAR HEMOGLOBIN CONCENTRATION [3]: 38.37 G/DL
- MEAN CORPUSCULAR VOLUME [3]: 62.7 fL
- MONOCYTE [3]: 1.67%
- NEUTROPHIL [3]: 4.67%
- NUCLEATED RED BLOOD CELLS [3]: 0 /100WBC
- PLATELET COUNT [3]: 1269.33 x10E3/uL
- ALANINE AMINOTRANSFERASE [3]: 73.33 u/L
- ALBUMIN [3]: 4.13 G/DL
- ALKALINE PHOSPHATASE [3]: 474.33 u/L
- ASPARTATE AMINOTRANSFERASE [3]: 82 u/L
- BLOOD UREA NITROGEN [3]: 13.33 mg/dL
- CARBON DIOXIDE [3]: 25.67 mmol/L
- CHLORIDE [3]: 101 MEQ/L
- CHOLESTEROL [3]: 64.33 mg/dL
- CREATINE PHOSPHOKINASE [3]: 344.33 u/L
- CREATININE [3]: 0.18 mg/dL
- GLUCOSE [3]: 187 mg/dL
- LACTATE DEHYDROGENASE [3]: 278 u/L
- LIPASE [3]: 10.33 u/L
- PHOSPHORUS [3]: 12.03 mg/dL
- POTASSIUM [3]: 6.59 MEQ/L
- SODIUM [3]: 141.23 MEQ/L
- TOTAL BILIRUBIN [3]: 0.2 mg/dL
- TOTAL PROTEIN [3]: 5.7 G/DL
- URIC ACID [3]: 2.43 mg/dL
